Experimental data from patent publication US20180325914A1, “INCREASING STORAGE OF VITAMIN A, VITAMIN D AND/OR LIPIDS” (Salk Institute for Biological Studies, priority 2014, published 2018).

Tested on: primary HSCs
[1] = mRNA-Seq expression, primary HSCs, day 6 with JQ1

For `Cc1sc2c(c1C)C(c1ccc(Cl)cc1)=N[C@@H](CC(=O)OC(C)(C)C)c1nnc(C)n1-2` [JQ1, (S)-tert-butyl 2-(4-(4-chlorophenyl)-2,3,9-trimethyl-6H-thieno[3,2-f][1,2,4]triazolo[4,3-a][1,4]diazepin-6-yl)acetate], the “Elfn1 value_2 (Day_6_JQ1)” value [1] was 0.4141, the “Eln value_2 (Day_6_JQ1)” value [1] was 0.6077 and the “Esrp2 value_2 (Day_6_JQ1)” value [1] was 0.7459. For the same compound, the “Etv4 value_2 (Day_6_JQ1)” value [1] was 1.116, the “F3 value_2 (Day_6_JQ1)” value [1] was 32.9312 and the “Fam132b value_2 (Day_6_JQ1)” value [1] was 0.6136. The “Fam198b value_2 (Day_6_JQ1)” value [1] was 1.907, the “Fblim1 value_2 (Day_6_JQ1)” value [1] was 12.2302 and the “Fibin value_2 (Day_6_JQ1)” value [1] was 1.847. For the same compound, the “Fkbp10 value_2 (Day_6_JQ1)” value [1] was 27.4534, the “Fkbp11 value_2 (Day_6_JQ1)” value [1] was 6.955 and the “Fst value_2 (Day_6_JQ1)” value [1] was 3.079. For the same compound, the “Fxyd6 value_2 (Day_6_JQ1)” value [1] was 0.9921, the “Gbx2 value_2 (Day_6_JQ1)” value [1] was 0.4331 and the “Gjb3 value_2 (Day_6_JQ1)” value [1] was 0.08229. The “Gjb5 value_2 (Day_6_JQ1)” value [1] was 0.1388, the “Gm12824 value_2 (Day_6_JQ1)” value [1] was 0.8107 and the “Gpr176 value_2 (Day_6_JQ1)” value [1] was 5.413. The “Has2 value_2 (Day_6_JQ1)” value [1] was 1.812, the “Hebp2 value_2 (Day_6_JQ1)” value [1] was 0.7684 and the “Hhipl1 value_2 (Day_6_JQ1)” value [1] was 0.517. The “Hsd11b1 value_2 (Day_6_JQ1)” value [1] was 3.839, the “Hspb2 value_2 (Day_6_JQ1)” value [1] was 6.826 and the “Hspb7 value_2 (Day_6_JQ1)” value [1] was 0.2986. For the same compound, the “Htra3 value_2 (Day_6_JQ1)” value [1] was 1.896, the “Ivl value_2 (Day_6_JQ1)” value [1] was 0.5056 and the “Jph2 value_2 (Day_6_JQ1)” value [1] was 3.451. The “Kcnmb1 value_2 (Day_6_JQ1)” value [1] was 0.01726, the “Kctd15 value_2 (Day_6_JQ1)” value [1] was 1.124 and the “Lmod1 value_2 (Day_6_JQ1)” value [1] was 5.533. For the same compound, the “Lox14 value_2 (Day_6_JQ1)” value [1] was 6.181, the “Lox value_2 (Day_6_JQ1)” value [1] was 102.497 and the “Ltbp1 value_2 (Day_6_JQ1)” value [1] was 3.833. For the same compound, the “Ltbp2 value_2 (Day_6_JQ1)” value [1] was 4.7344, the “Mfap4 value_2 (Day_6_JQ1)” value [1] was 0.2994 and the “Mfap5 value_2 (Day_6_JQ1)” value [1] was 1.011. The “Mgp value_2 (Day_6_JQ1)” value [1] was 22.5571, the “Mmp23 value_2 (Day_6_JQ1)” value [1] was 6.014 and the “Mrap value_2 (Day_6_JQ1)” value [1] was 0.2549. The “Mrgprf value_2 (Day_6_JQ1)” value [1] was 1.3677, the “Myl9 value_2 (Day_6_JQ1)” value [1] was 142.669 and the “Naalad2 value_2 (Day_6_JQ1)” value [1] was 0.9739. For the same compound, the “Nfatc4 value_2 (Day_6_JQ1)” value [1] was 2.235, the “Npr3 value_2 (Day_6_JQ1)” value [1] was 8.408 and the “Olfm2 value_2 (Day_6_JQ1)” value [1] was 0.8372. For the same compound, the “P2ry14 value_2 (Day_6_JQ1)” value [1] was 6.946, the “P4ha3 value_2 (Day_6_JQ1)” value [1] was 1.335 and the “Pappa value_2 (Day_6_JQ1)” value [1] was 0.6606. For the same compound, the “Pdgfc value_2 (Day_6_JQ1)” value [1] was 1.527, the “Pdgfrl value_2 (Day_6_JQ1)” value [1] was 0.4741 and the “Pdlim3 value_2 (Day_6_JQ1)” value [1] was 0.5953. The “Pla1a value_2 (Day_6_JQ1)” value [1] was 2.047, the “Postn value_2 (Day_6_JQ1)” value [1] was 58.0905 and the “Prelid2 value_2 (Day_6_JQ1)” value [1] was 1.71. For the same compound, the “Prkar1b value_2 (Day_6_JQ1)” value [1] was 1.1011, the “Pstpip1 value_2 (Day_6_JQ1)” value [1] was 0.2607 and the “Ptgs2 value_2 (Day_6_JQ1)” value [1] was 2.221. For the same compound, the “Ptprn value_2 (Day_6_JQ1)” value [1] was 5.204, the “Rap1gap2 value_2 (Day_6_JQ1)” value [1] was 2.58 and the “Rasl12 value_2 (Day_6_JQ1)” value [1] was 0.3063. For the same compound, the “Rgs4 value_2 (Day_6_JQ1)” value [1] was 2.345, the “Saa3 value_2 (Day_6_JQ1)” value [1] was 10.7546 and the “Serpinb9b value_2 (Day_6_JQ1)” value [1] was 4.136. The “Serpinf1 value_2 (Day_6_JQ1)” value [1] was 66.5572, the “Sertad4 value_2 (Day_6_JQ1)” value [1] was 0.6904 and the “Slc16a3 value_2 (Day_6_JQ1)” value [1] was 10.7025. The “Sorcs2 value_2 (Day_6_JQ1)” value [1] was 0.1588, the “Spon2 value_2 (Day_6_JQ1)” value [1] was 12.3682 and the “Srpx2 value_2 (Day_6_JQ1)” value [1] was 2.998. For the same compound, the “Stra6 value_2 (Day_6_JQ1)” value [1] was 0.07484, the “Syt13 value_2 (Day_6_JQ1)” value [1] was 6.257 and the “Tfpi2 value_2 (Day_6_JQ1)” value [1] was 4.486. For the same compound, the “Thy1 value_2 (Day_6_JQ1)” value [1] was 2.222, the “Tll1 value_2 (Day_6_JQ1)” value [1] was 0.3916 and the “Tmeff1 value_2 (Day_6_JQ1)” value [1] was 5.181. The “Tmem200a value_2 (Day_6_JQ1)” value [1] was 0.3192, the “Tnfsf8 value_2 (Day_6_JQ1)” value [1] was 0.1581 and the “Tnfsf13b value_2 (Day_6_JQ1)” value [1] was 1.119. For the same compound, the “Tnfsf15 value_2 (Day_6_JQ1)” value [1] was 0.07599, the “Tnfsf18 value_2 (Day_6_JQ1)” value [1] was 0.24 and the “Trpc6 value_2 (Day_6_JQ1)” value [1] was 0.05189. The “Wbscr17 value_2 (Day_6_JQ1)” value [1] was 0.7256, the “Wisp1 value_2 (Day_6_JQ1)” value [1] was 4.262 and the “Wisp2 value_2 (Day_6_JQ1)” value [1] was 1.369. For the same compound, the “Wnt11 value_2 (Day_6_JQ1)” value [1] was 1.299, the “Zfp827 value_2 (Day_6_JQ1)” value [1] was 0.4625 and the “1110003E01Rik value_2” value (mRNA-Seq, sample Day_6_JQ1) was 69.1288. For the same compound, the “1600014C10Rik value_2” value (mRNA-Seq, sample Day_6_JQ1) was 21.437, the “2310022B05Rik value_2” value (mRNA-Seq, sample Day_6_JQ1) was 132.474 and the “Adam15 value_2” value (mRNA-Seq, sample Day_6_JQ1) was 78.5951. For the same compound, the “Afap1l2 value_2” value (mRNA-Seq, sample Day_6_JQ1) was 58.9193, the “Ahdc1 value_2” value (mRNA-Seq, sample Day_6_JQ1) was 13.24 and the “Apln value_2” value (mRNA-Seq, sample Day_6_JQ1) was 16.0329. For the same compound, the “Arhgap11a value_2” value (mRNA-Seq, sample Day_6_JQ1) was 12.9839, the “Arhgef17 value_2” value (mRNA-Seq, sample Day_6_JQ1) was 35.1441 and the “Aurkb value_2” value (mRNA-Seq, sample Day_6_JQ1) was 18.2306. The “BC018242 value_2” value (mRNA-Seq, sample Day_6_JQ1) was 17.3751, the “BC031353 value_2” value (mRNA-Seq, sample Day_6_JQ1) was 10.0028 and the “BC046404 value_2” value (mRNA-Seq, sample Day_6_JQ1) was 27.3155. For the same compound, the “Bambi value_2” value (mRNA-Seq, sample Day_6_JQ1) was 20.2742, the “Basp1 value_2” value (mRNA-Seq, sample Day_6_JQ1) was 173.108 and the “Bicc1 value_2” value (mRNA-Seq, sample Day_6_JQ1) was 86.5801. The “Bphl value_2” value (mRNA-Seq, sample Day_6_JQ1) was 18.4476, the “C330027C09Rik value_2” value (mRNA-Seq, sample Day_6_JQ1) was 10.1673 and the “Cadm4 value_2” value (mRNA-Seq, sample Day_6_JQ1) was 23.19. For the same compound, the “Cbx5 value_2” value (mRNA-Seq, sample Day_6_JQ1) was 28.9059.
